Experimental data: ChEMBL document CHEMBL1144048, “Facile preparation of new 4-phenylamino-3-quinolinecarbonitrile Src kinase inhibitors via 7-fluoro intermediates: identification of potent 7-amino analogs” (Bioorg Med Chem, 2008)
Converted amounts (≈) assume the structure as drawn. Blank lines part the entries; values can stand above or below the compound they belong to.

Columns and labels:
[1] = Inhibition of human cSrc-vSrc fusion protein expressed in rat fibroblast cells by ELISA; format: cell-based
[2] = Solubility at pH 7.4; format: physicochemical; conditions: buffer
[3] = Permeability across artificial membrane by PAMPA; format: ADME; conditions: read-out: permeability
[4] = biological target: CYP3A4 (Homo sapiens, UniProt P08684); experiment: Inhibition of CYP3A4 at 3 uM; format: ADME
CYP3A4, sequence (P08684 whole entry): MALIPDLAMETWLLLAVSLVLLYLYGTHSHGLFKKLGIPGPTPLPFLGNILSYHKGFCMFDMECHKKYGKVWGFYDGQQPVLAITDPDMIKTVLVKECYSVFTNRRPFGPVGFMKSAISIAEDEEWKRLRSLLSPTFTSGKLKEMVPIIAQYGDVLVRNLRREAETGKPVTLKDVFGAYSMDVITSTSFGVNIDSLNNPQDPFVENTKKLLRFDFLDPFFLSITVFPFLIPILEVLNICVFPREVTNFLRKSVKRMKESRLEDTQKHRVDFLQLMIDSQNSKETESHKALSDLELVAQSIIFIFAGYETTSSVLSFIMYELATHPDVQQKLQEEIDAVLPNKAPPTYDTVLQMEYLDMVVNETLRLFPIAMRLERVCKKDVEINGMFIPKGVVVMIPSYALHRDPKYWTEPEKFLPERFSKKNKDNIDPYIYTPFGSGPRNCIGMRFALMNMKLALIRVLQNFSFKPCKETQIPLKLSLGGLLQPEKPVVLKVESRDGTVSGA

[5] = biological target: CYP2D6 (Homo sapiens, UniProt P10635); experiment: Inhibition of CYP2D6 at 3 uM; format: ADME
CYP2D6, sequence (P10635 whole entry): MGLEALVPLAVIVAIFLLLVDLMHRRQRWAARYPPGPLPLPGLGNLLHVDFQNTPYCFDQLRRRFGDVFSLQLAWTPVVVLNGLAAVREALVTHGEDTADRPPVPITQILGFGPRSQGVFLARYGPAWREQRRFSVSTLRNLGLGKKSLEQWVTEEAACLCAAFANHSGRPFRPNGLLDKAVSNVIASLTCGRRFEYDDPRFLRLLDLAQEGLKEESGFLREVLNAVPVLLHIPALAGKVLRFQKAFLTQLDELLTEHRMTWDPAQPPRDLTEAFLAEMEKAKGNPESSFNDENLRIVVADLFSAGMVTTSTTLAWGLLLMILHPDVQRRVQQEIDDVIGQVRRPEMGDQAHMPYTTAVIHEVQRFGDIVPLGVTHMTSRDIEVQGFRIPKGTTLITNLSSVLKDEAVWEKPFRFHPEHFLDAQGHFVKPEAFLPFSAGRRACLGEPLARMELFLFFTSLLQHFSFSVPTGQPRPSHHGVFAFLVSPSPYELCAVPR

[6] = biological target: CYP2C9 (Homo sapiens, UniProt P11712); experiment: Inhibition of CYP2C9 at 3 uM; format: ADME
CYP2C9, sequence (P11712 whole entry): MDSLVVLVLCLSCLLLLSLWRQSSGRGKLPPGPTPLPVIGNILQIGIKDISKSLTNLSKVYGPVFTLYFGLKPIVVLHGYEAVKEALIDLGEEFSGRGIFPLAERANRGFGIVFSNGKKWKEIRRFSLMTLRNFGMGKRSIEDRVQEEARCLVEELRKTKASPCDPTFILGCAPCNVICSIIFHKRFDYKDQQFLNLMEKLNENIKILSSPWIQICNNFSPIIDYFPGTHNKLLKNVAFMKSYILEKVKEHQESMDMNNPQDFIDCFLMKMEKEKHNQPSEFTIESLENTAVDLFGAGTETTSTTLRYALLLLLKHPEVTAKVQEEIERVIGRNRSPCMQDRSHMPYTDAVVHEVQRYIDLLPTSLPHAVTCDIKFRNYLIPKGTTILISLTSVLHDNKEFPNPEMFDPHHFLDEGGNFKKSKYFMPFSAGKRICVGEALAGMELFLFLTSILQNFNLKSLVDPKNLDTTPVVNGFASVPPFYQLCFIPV

[7] = Stability in mouse plasma after 300 mins; format: ADME, cell-free; conditions: read-out: Stability
[8] = Drug level in nude mouse plasma at 50 mg/kg, po after 4 hrs; format: ADME, organism-based; design: dose 50 mg/kg, route oral
[9] = Drug level in nude mouse plasma at 50 mg/kg, po after 8 hrs; format: ADME, organism-based; design: dose 50 mg/kg, route oral
[10] = Drug level in nude mouse plasma at 50 mg/kg, po after 24 hrs; format: ADME, organism-based; design: dose 50 mg/kg, route oral
[11] = system: HT-29; experiment: Inhibition of tumor growth in human HT29 cells xenografted nude mouse at 150 mg/kg, po OD after 14 days relative to control; format: functional; conditions: HT-29, 336 h

SMILES: COCCOc1cc2ncc(C#N)c(Nc3cc(OC)c(Cl)cc3Cl)c2cc1OC
IC50 [1]: 190 nM

SMILES: COc1cc(Nc2c(C#N)cnc3cc(N(C)CCCN(C)C)c(OC)cc23)c(Cl)cc1Cl
IC50 [1]: 2700 nM

solubility [2]: > 100 µg/mL | Papp [3]: 7.3 ×10⁻⁶ cm/s | inhibition at 3 µM [4]: < 34% | inhibition at 3 µM [5]: < 34% | inhibition at 3 µM [6]: < 34% | remaining at 5 h [7]: > 70% | concentration at 4 h [8]: 610 ng/mL | concentration at 8 h [9]: 410 ng/mL | concentration at 24 h [10]: 80 ng/mL
SMILES: COc1cc(Nc2c(C#N)cnc3cc(NCCCN(C)C)c(OC)cc23)c(Cl)cc1Cl
IC50 [1]: 300 nM | inhibition in vivo at 150 mg/kg [11]: 75%

SMILES: COc1cc(Nc2c(C#N)cnc3cc(NCCCN4CCOCC4)c(OC)cc23)c(Cl)cc1Cl
IC50 [1]: 390 nM

SMILES: COc1cc(Nc2c(C#N)cnc3cc(OCCCN4CCN(C)CC4)ccc23)c(Cl)cc1Cl
IC50 [1]: 710 nM

SMILES: COCCOc1ccc2c(Nc3ccc(Cl)cc3Cl)c(C#N)cnc2c1
IC50 [1]: > 10000 nM

SMILES: COCCOc1ccc2c(Nc3cc(OC)c(Cl)cc3Cl)c(C#N)cnc2c1
IC50 [1]: 1600 nM

SMILES: COCCNc1cc2ncc(C#N)c(Nc3cc(OC)c(Cl)cc3Cl)c2cc1OC
IC50 [1]: 1500 nM

SMILES: CCOc1cc2c(Nc3cc(OC)c(Cl)cc3Cl)c(C#N)cnc2cc1OCCOC
IC50 [1]: 180 nM

SMILES: CCOc1cc2c(Nc3cc(OC)c(Cl)cc3Cl)c(C#N)cnc2cc1OCCCN1CCN(C)CC1
IC50 [1]: 85 nM

solubility [2]: 32 µg/mL (≈ 60.4 µM) | Papp [3]: 10.7 ×10⁻⁶ cm/s | inhibition at 3 µM [4]: < 34% | inhibition at 3 µM [5]: < 34% | inhibition at 3 µM [6]: < 34% | remaining at 5 h [7]: > 70% | concentration at 4 h [8]: 790 ng/mL | concentration at 8 h [9]: 520 ng/mL | concentration at 24 h [10]: 100 ng/mL
SMILES: COc1cc(Nc2c(C#N)cnc3cc(NCCCN4CCN(C)CC4)c(OC)cc23)c(Cl)cc1Cl
IC50 [1]: 360 nM | inhibition in vivo at 150 mg/kg [11]: 63%

concentration at 4 h [8]: 1060 ng/mL | concentration at 24 h [10]: 47 ng/mL
SMILES: COc1cc(Nc2c(C#N)cnc3cc(OCCCN4CCN(C)CC4)c(OC)cc23)c(Cl)cc1Cl [BOSUTINIB]
IC50 [1]: 100 nM | inhibition in vivo at 150 mg/kg [11]: 50%
